Reference: patent publication US12643899B2, “Antiviral agents, uses thereof and methods for their preparation” (The University of British Columbia, priority 2020, dated 2026)

Tests used:
[1] = MTS cytotoxicity assay in A549 cells; type: cell-based, human; settings: human, A549 cells (human lung carcinoma)
Method: An MTS assay was performed to determine the cytotoxicity concentration 50% (CC50) of cladoniamide A (CA) in human A549 cells, a cell line from human lung carcinoma. Various concentrations of CA were added to cultured A549 cells and incubated (37° C., 5% CO2) for 48 h. Cell viability was then measured by an MTS assay kit (CellTiter 96™ Aqueous One Solution cell proliferation assay, Promega) according to the manufacturer's instructions. Curve fitting was performed in Igor Pro (WaveMetrics) using a hyperbolic fit algorithm (FIG. 1). The CC50 of CA in A549 cells was determined to be 54±5 μM. An MTS assay was also performed to determine the CC50 of CA in human U87 MG cells, a cell line from human brain. Various concentrations of CA were added to cultured U87 MG cells and incubated (37° C., 5% CO2) for 48 h. Cell viability was then measured by an MTS assay kit (CellTiter 96 Aqueous One Solution cell proliferation assay, Promega) according to the manufacturer's instructions. Curve fitting was performed in Igor Pro (WaveMetrics) using a hyperbolic fit algorithm (FIG. 2).

ZIKV = ZIKV viral dsRNA imaging (Cellomics ArrayScan VTI) in A549 cells; type: cell-based, Zika virus; settings: 15 μM, 1 h pre-treatment, MOI 1, 48 h
[2] = system: human coronavirus 229E (HCoV-229E); test: HCoV-229E intracellular viral dsRNA assay in Huh-7 cells; type: cell-based; settings: Huh-7, 48 h
Method: An IF-based assay was used to monitor viral dsRNA in infected cells.
CA pre-treatment: Cladoniamide A was added to non-infected Huh-7 cells (3 h). Cells were washed with PBS and inoculated with human coronavirus 229E (HCoV-229E) for 3 hours, then HCoV-229E was removed and the cells were washed with PBS once more. 48 hours post-infection, the cells were fixed and the intra-cellular viral dsRNA was quantified (HCS CX5 system). CA added post-infection: Huh-7 cells were inoculated with HCoV-229E for 3 hours. Then HCoV-229E was removed and cells were washed with PBS. Cladoniamide A was added to these infected cells. 48 hours post-infection, the cells were fixed and the intra-cellular viral dsRNA was quantified (HCS CX5 system).

With COc1c2n(c3ccccc13)[C@]1(O)C(=O)N(C)C(=O)[C@]1(O)c1c-2[nH]c2ccc(Cl)cc12 [CA, (11S,15R)-7-chloro-11,15-dihydroxy-23-methoxy-13-methyl-3,13,16-triazahexacyclo[14.7.0.0^2,10.0^4,9.0^11,15.0^17,22]tricosa-1(23),2(10),4(9),5,7,17,19,21-octaene-12,14-dione] the CC50 at 48 h [1] was 54 ± 5 µM, the “activity against ZIKV (viral dsRNA)” value (ZIKV) was “good activity” and the EC50 [2] was 0.015 µM.
